Assay results published in US8107711B2, “User interface method and system for management and control of automated image processing in high content screening or high throughput screening” (Vala Sciences, Inc., priority 2008, dated 2012).

Test system: IL-8 mRNA
Experiment: IL-8 mRNA assay (Quantigene reagent set) quantified by automated image processing
Format: cell-based
From the text: Through use of inexpensive reagents and simple protocols a transcription assay can be conducted in which mRNA is synthesized and then captured. The location and number of individual mRNA species captured can be visualized in cells and tissue sections by fluorescence-based detection and quantified by automated image processing.
For visualization in images, a probe is used which binds to target mRNA species with very high specificity. It is possible to generate probes to virtually any known sequence. Preferably, such probes are hybridized to the target mRNAs in cell or tissue samples that have been fixed and permeabilized. A fluorescent reagent may then added, which binds to the probe. When slides and well plates containing cultured cells are processed in this manner, and viewed with fluorescence microscopy, bright spots (mRNA loci) are apparent that correspond to individual copies of the target mRNA.
To quantify gene transcription, the mRNA loci can be individually counted for each cell. While this can be done manually, by loading such images in a general purpose image analysis program, manual analysis is very laborious and time consuming due to fatigue and inconsistency between researchers. A convenient, user-friendly, and accurate alternative may be provided by an image processing algorithm, which may be in the form of a Windows® compatible, Java-based software system, specifically engineered for this application. With reference to FIG. 1, for example, such a system identifies individual cells, and quantifies the number of mRNA loci on a per cell basis in fields of view imaged for nuclei (shown in blue with DAPI staining), and for mRNA (shown in green using fluorescent reagents). Results produced by such a system may be input into a quantitative modeling system (such as a spreadsheet process) in order to organize, quantify, model, and present the results for interpretation and analysis.
FIG. 2 illustrates the performance of an mRNA assay and quantification by an image processing algorithm in an experimental setting, using a Quantigene® reagent set available from Panomics, Inc., Fremont, Calif. and an automated image processing system available from Vala Sciences, Inc. In this assay, cells were exposed to different concentrations of phorbol 12-myristate 13-acetate (PMA), and analyzed for the copy number of IL-8 mRNA. For control cells (exposed to 0 PMA), essentially no IL-8 mRNA were detected (0.05/cell). In contrast, exposure to PMA led to a dramatic increase in the presence of the loci with an EC50 of between 0.1 and 1 ng/ml PMA.
FIG. 6 illustrates in a general way how an image processing algorithm may operate to obtain results from images in the source folder. An example of one such algorithm designed for processing images of mRNA transcription is the CyteSeer™-ViewRNA process available from Vala Sciences, Inc. The algorithm starts with a nuclear image (such as those in the left panels of FIGS. 1 and 2), and identifies all of the nuclei within the field of view. A nuclear mask for each cell is established. […] One or more sets of experimental data may then be calculated by the automated image processing system, on a per cell basis, using the result images or masks. Preferably, these experimental data are presented and arranged according to a file convention and are placed into one or more files that can be transported, loaded, or otherwise made available to a quantitative modeling system (for example, a spreadsheet process). […]

## CCCCCCCCCCCCCC(=O)O[C@@H]1[C@@H](C)[C@@]2(O)[C@@H](C=C(CO)C[C@]3(O)C(=O)C(C)=C[C@@H]23)[C@@H]2C(C)(C)[C@]12OC(C)=O [PMA, phorbol 12-myristate 13-acetate]
0.1 ng/ml PMA, well E15
  RNA spot count: 14.3 spots/cell
1 ng/ml PMA vs control well C15
  fold increase in Area Rm: 3000 fold
1 ng/ml PMA, well G15
  RNA spot count: 84.1 spots/cell
1 ng/ml PMA, well G15 (control well C15 <1)
  Area Rm, the average area, per cell, of the RNA mask: > 1100
PMA vs control (Table in FIG. 12)
  fold increase in TII Ri Rm, the total intensity of the spots/cell: 8000 fold
